Measurements: patent US20240368133A1, “Compounds for the Treatment of Pain, in Particular, Neuropathic Pain, and/or Other Diseases or Disorders that are Associated with AT2R and/or AT2R Mediated Signaling” (Confo Therapeutics N.V., priority 2021, published 2024)

Tests used:
[1] = target: human AT1R (Homo sapiens (Human), UniProt P30556); experiment: Counterscreen radioligand binding assay, displacement of 125I-[Sar1, Ile8]-Angiotensin II, hAT1R WT; conditions: for inhibition at 1 µM / inhibition at 10 µM: 125I-[Sar1, Ile8]-Ang II, semi-quantitative score; for inhibition at 1 µM: compound at 1 μM, read-out: % Displaced radioligand at 1 μM; for inhibition at 10 µM: compound at 10 μM, read-out: % Displaced radioligand at 10 μM; for IC50: HEK-293 cell membranes, read-out: Binding affinity On hAT1R IC50
human AT1R, sequence (P30556 whole entry): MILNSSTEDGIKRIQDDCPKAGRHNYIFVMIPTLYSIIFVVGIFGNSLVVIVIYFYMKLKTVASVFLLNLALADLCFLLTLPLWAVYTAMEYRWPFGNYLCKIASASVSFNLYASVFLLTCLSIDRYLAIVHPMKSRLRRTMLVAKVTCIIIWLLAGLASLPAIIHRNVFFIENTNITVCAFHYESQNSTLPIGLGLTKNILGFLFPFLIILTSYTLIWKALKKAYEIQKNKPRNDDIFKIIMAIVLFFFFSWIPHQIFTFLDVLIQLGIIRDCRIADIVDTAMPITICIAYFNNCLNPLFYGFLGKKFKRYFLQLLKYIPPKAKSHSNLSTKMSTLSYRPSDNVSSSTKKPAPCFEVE
Procedure, shortened: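 Membranes from HEK-293 cells expressing human AT1R were incubated for one hour at 25° C, pH 7.4, with 0.05 nM radiolabelled [Sar1, Ile8]-Ang II and test ligand. Bound radioactivity was collected on PEI-soaked filters, with 10 μM unlabelled [Sar1]-Ang II defining non-specific binding. Results are percent displacement at 1 μM and […], or IC50 from eight-point duplicate curves.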

[2] = target: human AT2R fused to Cb23 (Homo sapiens, UniProt P50052); experiment: Radioligand binding assay, displacement of 125I-[Sar1, Ile8]-Angiotensin II, hAT2R Cb23; conditions: displacement of 125I-[Sar1, Ile8]-Angiotensin II, human AT2R fused to Cb23, HEK-293 cell membrane preparations; read-out: Binding affinity on hAT2R_Cb23 IC50
human AT2R fused to Cb23, sequence (P50052 whole entry, looked up, the tested form may be a part): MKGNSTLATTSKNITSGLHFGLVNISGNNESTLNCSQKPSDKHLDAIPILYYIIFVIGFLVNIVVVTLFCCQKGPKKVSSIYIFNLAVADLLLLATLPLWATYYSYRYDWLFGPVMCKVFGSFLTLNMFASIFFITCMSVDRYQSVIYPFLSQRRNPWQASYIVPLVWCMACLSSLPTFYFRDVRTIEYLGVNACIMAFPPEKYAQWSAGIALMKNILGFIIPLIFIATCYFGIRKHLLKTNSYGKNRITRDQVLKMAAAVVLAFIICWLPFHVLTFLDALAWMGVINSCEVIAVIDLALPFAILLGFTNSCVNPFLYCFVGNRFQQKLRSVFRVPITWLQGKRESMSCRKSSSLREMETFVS
Procedure, shortened: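 Membranes from HEK-293 cells expressing human AT2R fused to Cb23 were incubated with 0.05 nM 125I-[Sar1, Ile8]-Angiotensin II in 100 μL buffer (50 mM Tris, 5 mM MgCl2, 1 mM EDTA, 0.1% BSA, pH 7.4) for one hour at 25° C. Ligands were tested as eight-point dose-response curves in duplicate, with C21 and Angiotensin II as references.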

CC(C)Cc1ccc(-c2nn[nH]n2)c(N2CCN(Cc3cc(=O)n4ccccc4n3)CC2)c1 [Compound A-76, 2-[[4-[5-isobutyl-2-(2H-tetrazol-5-yl)-phenyl]piperazin-1-yl]methyl]pyrido-[1,2-a]pyrimidin-4-one]
inhibition at 1 µM [1]: < 30% | inhibition at 10 µM [1]: < 30% | IC50 [2]: 5.57 µM

CC(C)Cc1ccc(-c2nn[nH]n2)c(N2CCN(Cc3cc4ccccc4n(C)c3=O)CC2)c1 [Compound A-77, 3-[[4-[5-isobutyl-2-(2H-tetrazol-5-yl)-phenyl]piperazin-1-yl]methyl]-1-methyl-quinolin-2-one]
inhibition at 1 µM [1]: < 30% | inhibition at 10 µM [1]: 30 to 50% | IC50 [1]: 13.5 µM | IC50 [2]: 2.91 µM

CC(C)Cc1ccc(-c2nn[nH]n2)c(N2CCN(Cc3nc4ccccc4c(=O)n3C)CC2)c1 [Compound A-78, 2-[[4-[5-isobutyl-2-(2H-tetrazol-5-yl)-phenyl]piperazin-1-yl]methyl]-3-methyl-quinazolin-4-one]
inhibition at 1 µM [1]: < 30% | inhibition at 10 µM [1]: 30 to 50% | IC50 [1]: 12.2 µM | IC50 [2]: 1.5 µM

CC(C)Cc1ccc(-c2nn[nH]n2)c(N2CCN(Cc3nc4ccccc4n(C)c3=O)CC2)c1 [Compound A-79, 3-[[4-[5-isobutyl-2-(2H-tetrazol-5-yl)-phenyl]piperazin-1-yl]methyl]-1-methyl-quinoxalin-2-one]
inhibition at 1 µM [1]: < 30% | inhibition at 10 µM [1]: < 30% | IC50 [2]: 4.72 µM

CC(C)Cc1ccc(-c2nn[nH]n2)c(N2CCN(Cc3cnc4ccccn34)CC2)c1 [Compound A-80, 3-[[4-[5-isobutyl-2-(2H-tetrazol-5-yl)-phenyl]piperazin-1-yl]methyl]imid-azo[1,2-a]pyridine]
inhibition at 1 µM [1]: < 30% | inhibition at 10 µM [1]: < 30% | IC50 [2]: 0.222 µM

CC(C)Cc1ccc(-c2nn[nH]n2)c(N2CCN(Cc3nn(C)c4ccccc34)CC2)c1 [Compound A-81, 3-[[4-[5-isobutyl-2-(2H-tetrazol-5-yl)-phenyl]piperazin-1-yl]methyl]-1-methyl-indazole]
inhibition at 1 µM [1]: < 30% | inhibition at 10 µM [1]: < 30% | IC50 [2]: 1.84 µM

CC(C)Cc1ccc(-c2nn[nH]n2)c(N2CCN(Cc3ccc(C(F)(F)F)cn3)CC2)c1 [Compound A-85, 1-[5-isobutyl-2-(2H-tetrazol-5-yl)-phenyl]-4-[[5-(trifluoromethyl)-2-pyridyl]methyl]-piperazine]
inhibition at 1 µM [1]: < 30% | inhibition at 10 µM [1]: < 30% | IC50 [1]: 45 µM | IC50 [2]: 2.03 µM

Cc1nc(CN2CCN(c3cc(CC(C)C)ccc3-c3nn[nH]n3)CC2)no1 [Compound A-86, 3-[[4-[5-isobutyl-2-(2H-tetrazol-5-yl)phenyl]piperazin-1-yl]methyl]-5-methyl-1,2,4-oxadiazole]
inhibition at 1 µM [1]: < 30% | inhibition at 10 µM [1]: < 30% | IC50 [2]: 24.9 µM

Cc1nc(CN2CCN(c3cc(CC(C)C)ccc3-c3nn[nH]n3)CC2)cs1 [Compound A-87]
inhibition at 1 µM [1]: < 30% | inhibition at 10 µM [1]: < 30% | IC50 [2]: 3.81 µM

Cc1cc(CN2CCN(c3cc(CC(C)C)ccc3-c3nn[nH]n3)CC2)on1 [Compound A-89, 5-[[4-[5-isobutyl-2-(2H-tetrazol-5-yl)-phenyl]piperazin-1-yl]methyl]-3-methyl-isoxazole]
inhibition at 1 µM [1]: < 30% | inhibition at 10 µM [1]: < 30% | IC50 [2]: 9.78 µM

CC(C)Cc1ccc(-c2nn[nH]n2)c(N2CCN(Cc3cnccn3)CC2)c1 [Compound A-93, 2-[[4-[5-isobutyl-2-(2H-tetrazol-5-yl)-phenyl]piperazin-1-yl]methyl]pyr-azine]
inhibition at 1 µM [1]: < 30% | inhibition at 10 µM [1]: < 30% | IC50 [2]: 6.98 µM

CC(C)Cc1ccc(-c2nn[nH]n2)c(N2CCN(Cc3nncn3C)CC2)c1 [Compound A-94, 1-[5-isobutyl-2-(2H-tetrazol-5-yl)phenyl]-4-[(4-methyl-1,2,4-triazol-3-yl)methyl]piperazine]
inhibition at 1 µM [1]: < 30% | inhibition at 10 µM [1]: 30 to 50% | IC50 [1]: 14.2 µM | IC50 [2]: 4.77 µM

CC(C)Cc1ccc(-c2nn[nH]n2)c(N2CCN(Cc3nccs3)CC2)c1 [Compound A-97, 2-[[4-[5-isobutyl-2-(2H-tetrazol-5-yl)phenyl]piperazin-1-yl]methyl]thiazole]
inhibition at 1 µM [1]: < 30% | inhibition at 10 µM [1]: < 30% | IC50 [2]: 0.757 µM

CC(C)Cc1ccc(-c2nn[nH]n2)c(N2CCN(Cc3ncco3)CC2)c1 [Compound A-98, 2-[[4-[5-isobutyl-2-(2H-tetrazol-5-yl)-phenyl]piperazin-1-yl]methyl]oxazole]
inhibition at 1 µM [1]: < 30% | inhibition at 10 µM [1]: < 30% | IC50 [2]: 5.69 µM

Cc1noc(C)c1CN1CCN(c2cc(CC(C)C)ccc2-c2nn[nH]n2)CC1 [Compound A-101]
inhibition at 1 µM [1]: < 30% | inhibition at 10 µM [1]: < 30% | IC50 [2]: 4.48 µM

CC(C)Cc1ccc(-c2nn[nH]n2)c(N2CCN(Cc3cc(C4CC4)on3)CC2)c1 [Compound A-102, 5-cyclopropyl-3-[[4-[5-isobutyl-2-(2H-tetrazol-5-yl)phenyl]piperazin-1-yl]methyl]isoxazole]
inhibition at 1 µM [1]: < 30% | inhibition at 10 µM [1]: < 30% | IC50 [2]: 7.07 µM

Cc1cc(CN2CCN(c3cc(CC(C)C)ccc3-c3nn[nH]n3)CC2)n(C)n1 [Compound A-104, 1-[(2,5-dimethyl-pyrazol-3-yl)meth-yl]-4-[5-isobutyl-2-(2H-tetrazol-5-yl)-phenyl]piperazine]
inhibition at 1 µM [1]: < 30% | inhibition at 10 µM [1]: < 30% | IC50 [2]: 6 µM

CC(C)Cc1ccc(-c2nn[nH]n2)c(N2CCN(Cc3cncn3C)CC2)c1 [Compound A-105, 1-[5-isobutyl-2-(2H-tetrazol-5-yl)phenyl]-4-[(3-methylimidazol-4-yl)methyl]piperazine]
inhibition at 1 µM [1]: < 30% | inhibition at 10 µM [1]: < 30% | IC50 [2]: 2 µM

Cc1cnc(CN2CCN(c3cc(CC(C)C)ccc3-c3nn[nH]n3)CC2)s1 [Compound A-106, 2-[[4-[5-isobutyl-2-(2H-tetrazol-5-yl)phenyl]piperazin-1-yl]methyl]-5-methyl-thiazole]
inhibition at 1 µM [1]: < 30% | inhibition at 10 µM [1]: < 30% | IC50 [2]: 0.0355 µM

Cc1scnc1CN1CCN(c2cc(CC(C)C)ccc2-c2nn[nH]n2)CC1 [Compound A-111, 4-[[4-[5-isobutyl-2-(2H-tetrazol-5-yl)phenyl]piperazin-1-yl]methyl]-5-methyl-thiazole]
inhibition at 1 µM [1]: < 30% | inhibition at 10 µM [1]: < 30% | IC50 [2]: 5.43 µM

Cc1cnnc(CN2CCN(c3cc(CC(C)C)ccc3-c3nn[nH]n3)CC2)c1 [Compound A-112, 3-[[4-[5-isobutyl-2-(2H-tetrazol-5-yl)phenyl]piperazin-1-yl]methyl]-5-methyl-pyridazine]
inhibition at 1 µM [1]: < 30% | inhibition at 10 µM [1]: < 30% | IC50 [2]: 0.697 µM

Cc1ccc(CN2CCN(c3cc(CC(C)C)ccc3-c3nn[nH]n3)CC2)nn1 [Compound A-113]
inhibition at 1 µM [1]: < 30% | inhibition at 10 µM [1]: < 30% | IC50 [2]: 7.07 µM

COc1ccc(CN2CCN(c3cc(CC(C)C)ccc3-c3nn[nH]n3)CC2)nn1 [Compound A-115, 3-[[4-[5-isobutyl-2-(2H-tetrazol-5-yl)-phenyl]piperazin-1-yl]methyl]-6-methoxy-pyridazine]
inhibition at 1 µM [1]: < 30% | inhibition at 10 µM [1]: < 30% | IC50 [2]: 1.98 µM

COc1cc(F)c(-c2nn[nH]n2)c(N2CCN(Cc3nc4ccccc4s3)CC2)c1 [Compound A-116, 2-[[4-[3-fluoro-5-methoxy-2-(2H-tetrazol-5-yl)phen-yl]piperazin-1-yl]-methyl]-1,3-benzo-thiazole]
inhibition at 1 µM [1]: < 30% | inhibition at 10 µM [1]: 30 to 50% | IC50 [1]: 18.1 µM | IC50 [2]: 8.98 µM

CC(C)Oc1cc(F)c(-c2nn[nH]n2)c(N2CCN(Cc3nc4ccccc4s3)CC2)c1 [Compound A-118, 2-[[4-[3-fluoro-5-isopropoxy-2-(2H-tetrazol-5-yl)phen-yl]piperazin-1-yl]-methyl]-1,3-benzo-thiazole]
inhibition at 1 µM [1]: < 30% | inhibition at 10 µM [1]: < 30% | IC50 [1]: 41.5 µM | IC50 [2]: 1 µM

CCc1cc(-c2nn[nH]n2)c(N2CCN(Cc3nc4ccccc4s3)CC2)cc1OC(C)C [Compound A-119, 2-[[4-[4-ethyl-5-isopropoxy-2-(2H-tetrazol-5-yl)phen-yl]piperazin-1-yl]-methyl]-1,3-benzo-thiazole]
inhibition at 1 µM [1]: < 30% | inhibition at 10 µM [1]: < 30% | IC50 [2]: 9.42 µM

CCc1cc(OC(C)C)cc(N2CCN(Cc3nc4ccccc4s3)CC2)c1-c1nn[nH]n1 [Compound A-120, 2-[[4-[3-ethyl-5-iso-propoxy-2-(2H-tetrazol-5-yl)phen-yl]piperazin-1-yl]-methyl]-1,3-benzo-thiazole]
inhibition at 1 µM [1]: < 30% | inhibition at 10 µM [1]: < 30% | IC50 [2]: 0.459 µM

CC(C)Oc1cc(N2CCN(Cc3nc4ccccc4s3)CC2)c(-c2nn[nH]n2)cc1C1CC1 [Compound A-121, 2-[[4-[4-cycloprop-yl-5-isopropoxy-2-(2H-tetrazol-5-yl)-phenyl]piperazin-1-yl]methyl]-1,3-benzothiazole]
inhibition at 1 µM [1]: < 30% | inhibition at 10 µM [1]: 30 to 50% | IC50 [1]: 11.7 µM | IC50 [2]: 2.78 µM
